PubChem BioAssay AID2060908 (Molecular Pharmacology Branch, DTP, NCI, 2025)

Tested on: 186277-243-T-J2-PDC complex spheroids, viability
Assay: Anticancer human tumor 186277-243-T-J2-PDC patient-derived colon adenocarcinoma cell line growth inhibition [RAS]
Conditions: for IC50: curve of first compound; for viability, T/C: stronger effect = lower value
From the text: RAS pathway inhibitors in Combinations in Complex Spheroids
A high-throughput screen of multi-cell type tumor spheroids was designed to identify active combinations of RAS pathway inhibitors and targeted small molecules. Complex spheroids include a stromal component modeled by human endothelial cells (HUVEC) and fibroblasts modeled by human mesenchymal stem cells (MSCs). The concentration ranges selected for each drug and investigational agent were based upon clinically achievable concentrations if the clinical Cmax of the agent was known.
Compounds. The drugs and investigational agents: abemaciclib (NSC768073), cobimetinib (NSC768068), divarasib (GDC6063, NSC841802), docetaxel (NSC628503), GDC-1971 (RLY-1971, NSC841576), gemcitabine (NSC613327), inavolisib (NSC800729), ipatasertib (NSC767898), KB-0742 (NSC834161), MRTX-1133 (NSC836407), osimertinib (NSC779217), RMC-4630 (NSC839698), RMC-6236 (NSC851965), RMC-6291 (NSC852671), Ro-3306 (NSC812927), sapanisertib (NSC764658), SN-38 (NSC673596), staurosporine (NSC755774), SY5609 (NSC837396), and tovorafenib (DAY101, NSC766906), were obtained from the National Cancer Institute (NCI) Developmental Therapeutics Program Chemical Repository. The FDA-approved anticancer drug set is available from the NCI Developmental Therapeutics Program. […] The stock solutions were prepared in dimethyl sulfoxide (DMSO, Sigma-Aldrich, St. Louis, MO, cat. D2650) at 800-fold the tested concentration and stored at -70 degrees C prior to their use. All drugs and investigational agents were tested over a range starting from a high concentration at or near the clinical Cmax and decreasing in half-log increments. If the clinical Cmax for an agent had not been determined, the highest concentration tested was 10 microM.
Cell Culture. All cells were maintained in an incubator at 37 degrees C and 5% CO2 with 95% humidity. The PDC lines were cultured according to standard operating procedures established by the NCI PDMR. All PDCs were thawed and cultured in Matrigel-coated flasks prepared with a working solution of 1X Ham's F-12 nutrient mix, without supplementation (Invitrogen, Waltham, MA, cat. 11765054), 100 U/mL penicillin-streptomycin (Invitrogen, cat. 15140122), and 2.5% Matrigel (Corning Inc., Corning, NY, cat. 354248) for the first three passages. The 362531-283-R-J2-PDC and 782815-120-R-J1-PDC lines were cultured in 6C/Colon 1B media, which includes advanced DMEM/F-12 (Thermo Fisher Scientific, cat. 12634028), 10 mM HEPES (Thermo Fisher Scientific, cat. 15630080), 1X GlutaMAX supplement (Thermo Fisher Scientific, cat. 35050061), 0.1 mg/mL primocin (InvivoGen, San Diego, CA, cat. ant-pm-2), 10% defined fetal bovine serum, heat inactivated (HyClone Laboratories Inc., Logan, UT, cat. SH30070.03HI), 50% L-WRN conditioned media (ATCC, cat. CRL-3276), 1.25 mM N-Acetyl-L-cysteine (Sigma-Aldrich, cat. A9165), 10 mM nicotinamide (Sigma-Aldrich, cat. N0636), 1X B-27 supplement (Thermo Fisher Scientific, cat. 17504044), 1X N-2 supplement (Thermo Fisher Scientific, cat. 17502048), 50 ng/mL human EGF (Thermo Fisher Scientific, cat. PHG0311), and 10 microM Y-27632 dihydrochloride (Tocris Bioscience, cat. 1254). The K12877-001-R-J1-PDC line was cultured in 6I media, which includes all 6C/Colon 1B media plus 10 ng/mL human FGF-10 (PeproTech, cat. 100-26), 1 ng/mL human FGF-2 (PeproTech, cat. 100-18B), 1 µM prostaglandin E2 (Tocris Bioscience, cat. 2296), […] hydrocortisone (Sigma-Aldrich, cat. H4001), and […] bovine insulin (Sigma-Aldrich, cat. I6634). The K86415-001-R-J1-PDC line was cultured in 6D media, which includes all 6C/Colon 1B media components minus the L-WRN conditioned media. The 485176-168-R4-J1-PDC was cultured in PANC media, which includes all 6C/Colon 1B media plus 100 ng/mL human FGF-10 (PeproTech, cat. 100-26), 500 nM SB-431542 (Selleckchem, cat. S1067), and 10 nM gastrin (Tocris Bioscience, cat. 3006). […]

[1] = second compound 0.000949 µM, first compound 0.0316 µM
[2] = second compound 0.000949 µM, first compound 0.1 µM
[3] = second compound 0.000949 µM, first compound 0.316 µM
[4] = second compound 0.000949 µM, first compound 1 µM
[5] = second compound 0.003 µM, first compound 0.0316 µM
[6] = second compound 0.003 µM, first compound 0.1 µM
[7] = second compound 0.003 µM, first compound 0.316 µM
[8] = second compound 0.003 µM, first compound 1 µM
[9] = second compound 0.00949 µM, first compound 0.0316 µM
[10] = second compound 0.00949 µM, first compound 0.1 µM
[11] = second compound 0.00949 µM, first compound 0.316 µM
[12] = second compound 0.00949 µM, first compound 1 µM
[13] = second compound 0.03 µM, first compound 0.0316 µM
[14] = second compound 0.03 µM, first compound 0.1 µM
[15] = second compound 0.03 µM, first compound 0.316 µM
[16] = second compound 0.03 µM, first compound 1 µM
[17] = second compound 0.0949 µM, first compound 0.0316 µM
[18] = second compound 0.0949 µM, first compound 0.1 µM
[19] = second compound 0.0949 µM, first compound 0.316 µM
[20] = second compound 0.0949 µM, first compound 1 µM
[21] = second compound 0.3 µM, first compound 0.0316 µM
[22] = second compound 0.3 µM, first compound 0.1 µM
[23] = second compound 0.3 µM, first compound 0.316 µM
[24] = second compound 0.3 µM, first compound 1 µM
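Further: spheroids exposed to compounds for 7 days before viability read.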

## Nc1ccn(C2OC(CO)C(O)C2(F)F)c(=O)n1 (centres undefined) + CCn1c(-c2cc(N3CCN(C)CC3)cnc2C(C)OC)c2c3cc(ccc31)-c1csc(n1)CC(NC(=O)C1CC1C)C(=O)N1CCCC(N1)C(=O)OCC(C)(C)C2
Second compound 0.000949 µM
  IC50: 4.76 nM
Second compound 0.003 µM
  IC50: < 3.16 nM
Second compound 0.00949 µM
  IC50: < 3.16 nM
Second compound 0.03 µM
  IC50: < 3.16 nM
Second compound 0.0949 µM
  IC50: < 3.16 nM
Second compound 0.3 µM
  IC50: < 3.16 nM
Second compound 0.000949 µM, first compound 0.00316 µM
  viability, T/C: 73%
Second compound 0.000949 µM, first compound 0.01 µM
  viability, T/C: 8.42%
[1]
  viability, T/C: 6.7%
[2]
  viability, T/C: 6.74%
[3]
  viability, T/C: 5.65%
[4]
  viability, T/C: 6.26%
Second compound 0.003 µM, first compound 0.00316 µM
  viability, T/C: 48%
Second compound 0.003 µM, first compound 0.01 µM
  viability, T/C: 6.35%
[5]
  viability, T/C: 5.14%
[6]
  viability, T/C: 4.45%
[7]
  viability, T/C: 4.85%
[8]
  viability, T/C: 4.99%
Second compound 0.00949 µM, first compound 0.00316 µM
  viability, T/C: 12.7%
Second compound 0.00949 µM, first compound 0.01 µM
  viability, T/C: 6.13%
[9]
  viability, T/C: 4.72%
[10]
  viability, T/C: 4.79%
[11]
  viability, T/C: 5.02%
[12]
  viability, T/C: 4.12%
Second compound 0.03 µM, first compound 0.00316 µM
  viability, T/C: 7.84%
Second compound 0.03 µM, first compound 0.01 µM
  viability, T/C: 5.11%
[13]
  viability, T/C: 4.83%
[14]
  viability, T/C: 4.21%
[15]
  viability, T/C: 4.75%
[16]
  viability, T/C: 3.8%
Second compound 0.0949 µM, first compound 0.00316 µM
  viability, T/C: 5.28%
Second compound 0.0949 µM, first compound 0.01 µM
  viability, T/C: 4.76%
[17]
  viability, T/C: 4.18%
[18]
  viability, T/C: 3.97%
[19]
  viability, T/C: 3.99%
[20]
  viability, T/C: 3.27%
Second compound 0.3 µM, first compound 0.00316 µM
  viability, T/C: 5.42%
Second compound 0.3 µM, first compound 0.01 µM
  viability, T/C: 4.54%
[21]
  viability, T/C: 3.86%
[22]
  viability, T/C: 3.78%
[23]
  viability, T/C: 3.81%
[24]
  viability, T/C: 3.23%

## C[C@@H](NC(=O)c1ncnc(N)c1Cl)c1ncc(C(=O)Nc2cc(C(F)(F)F)c(Cl)cn2)s1 + CCn1c(-c2cc(N3CCN(C)CC3)cnc2C(C)OC)c2c3cc(ccc31)-c1csc(n1)CC(NC(=O)C1CC1C)C(=O)N1CCCC(N1)C(=O)OCC(C)(C)C2
Second compound 0.000949 µM
  IC50: > 10000 nM
Second compound 0.003 µM
  IC50: > 10000 nM
Second compound 0.00949 µM
  IC50: 3630 nM
Second compound 0.03 µM
  IC50: < 31.6 nM
Second compound 0.0949 µM
  IC50: < 31.6 nM
Second compound 0.3 µM
  IC50: < 31.6 nM
[1]
  viability, T/C: 104%
[2]
  viability, T/C: 87.5%
[3]
  viability, T/C: 88%
[4]
  viability, T/C: 88.7%
Second compound 0.000949 µM, first compound 3.16 µM
  viability, T/C: 85.9%
Second compound 0.000949 µM, first compound 10 µM
  viability, T/C: 73.6%
[5]
  viability, T/C: 108%
[6]
  viability, T/C: 114%
[7]
  viability, T/C: 109%
[8]
  viability, T/C: 82.6%
Second compound 0.003 µM, first compound 3.16 µM
  viability, T/C: 93.2%
Second compound 0.003 µM, first compound 10 µM
  viability, T/C: 54.4%
[9]
  viability, T/C: 61.7%
[10]
  viability, T/C: 83.8%
[11]
  viability, T/C: 78.6%
[12]
  viability, T/C: 71.4%
Second compound 0.00949 µM, first compound 3.16 µM
  viability, T/C: 54.2%
Second compound 0.00949 µM, first compound 10 µM
  viability, T/C: 19.8%
[13]
  viability, T/C: 21.2%
[14]
  viability, T/C: 23.7%
[15]
  viability, T/C: 25.3%
[16]
  viability, T/C: 20.9%
Second compound 0.03 µM, first compound 3.16 µM
  viability, T/C: 16.9%
Second compound 0.03 µM, first compound 10 µM
  viability, T/C: 10%
[17]
  viability, T/C: 9.22%
[18]
  viability, T/C: 10.4%
[19]
  viability, T/C: 10%
[20]
  viability, T/C: 9.11%
Second compound 0.0949 µM, first compound 3.16 µM
  viability, T/C: 8.59%
Second compound 0.0949 µM, first compound 10 µM
  viability, T/C: 7.09%
[21]
  viability, T/C: 7.68%
[22]
  viability, T/C: 8.08%
[23]
  viability, T/C: 7.77%
[24]
  viability, T/C: 7.85%
Second compound 0.3 µM, first compound 3.16 µM
  viability, T/C: 7.78%
Second compound 0.3 µM, first compound 10 µM
  viability, T/C: 4.79%
